From patent US5672609A, “Pyridine compounds, intermediates compositions and methods of use” (Eli Lilly and Company, priority 1996, dated 1997)

What was measured:
Format in all cases: in vivo, female Sprague Dawley rats
uterus = test: Uterine weight in ovariectomized rats, 4-day oral dosing (Table 1); details: Rattus norvegicus, po, 96 h, OVX rats, daily for 4 days, read-out: Uterine Wt. (% inc. vs. OVX); for change in vivo at 1 mg/kg: 1 mg/kg oral; for change in vivo at 10 mg/kg: 10 mg/kg oral; for change in vivo at 25 mg/kg: 25 mg/kg oral; for change in vivo at 0.1 mg/kg: 0.1 mg/kg oral
Procedure: In the examples illustrating the methods, a post-menopausal model was used in which effects of different treatments upon circulating lipids were determined.
(§1) Seventy-five day old female Sprague Dawley rats (weight range of 200 to 225 g) were obtained from Charles River Laboratories (Portage, Mich.). The animals were either bilaterally ovariectomized (OVX) or exposed to a sham surgical procedure at Charles River Laboratories, and then shipped after one week. Upon arrival, they were housed in metal hanging cages in groups of 3 or 4 per cage and had ad libitum access to food (calcium content approximately 0.5%) and water for one week. Room temperature was maintained at 22.2° ±1.7° C. with a minimum relative humidity of 40%. The photoperiod in the room was 12 hours light and 12 hours dark.
(§2) Dosing Regimen Tissue Collection. After a one week acclimation period (therefore, two weeks post-OVX) daily dosing with test compound was initiated. 17α-ethynyl estradiol or the test compound were given orally, unless otherwise stated, as a suspension in 1% carboxymethylcellulose or dissolved in 20% cyclodextrin. Animals were dosed daily for 4 days. Following the dosing regimen, animals were weighed and anesthetized with a ketamine: Xylazine (2:1, V:V) mixture and a blood sample was collected by cardiac puncture. The animals were then sacrificed by asphyxiation with CO2, the uterus was removed through a midline incision, and a wet uterine weight was determined.
(§3) Data presented in Table 1 below show comparative results among ovariectomized rats, rats treated with 17α-ethynyl estradiol (EE2; an orally available form of estrogen), and rats treated with certain compounds of the present invention. […] This uterine response to estrogen is well recognized in the art.
(§4) The data presented in Table 1 below reflects the response of 5 to 6 rats per treatment.

[1] = test system: Uterine Eosinophil Peroxidase (EPO); test: Uterine Eosinophil Peroxidase (EPO) Assay (Table 1); parameters: key to Uterine EPO (V. max): Vmax of absorbance increase at 450 nm, monitored over 1 min; details: OVX rats, daily for 4 days
From the text: as §1, §2
Uterine Eosinomhil Peroxidase (EPO) Assay. Uteri were kept at 4° C. until time of enzymatic analysis. The uteri were then homogenized in 50 volumes of 50 mM Tris buffer (pH-8.0) containing 0.005% Triton X-100. Upon addition of 0.01% hydrogen peroxide and 10 mM O-phenylenediamine (final concentrations) in Tris buffer, increase in absorbance was monitored for one minute at 450 nm. The presence of eosinophils in the uterus is an indication of estrogenic activity of a compound. The maximal velocity of a 15 second interval was determined over the initial, linear portion of the reaction curve.
As is expressed in the below data, estrogenicity also was assessed by evaluating the response of eosinophil infiltration into the uterus.
as §4

Serum cholesterol = Serum cholesterol in ovariectomized rats, 4-day oral dosing (Table 1); details: Rattus norvegicus, po, 96 h, OVX rats, daily for 4 days; for inhibition in vivo at 1 mg/kg: 1 mg/kg oral; for inhibition in vivo at 1 mg/kg / inhibition in vivo at 10 mg/kg / inhibition in vivo at 25 mg/kg / inhibition in vivo at 0.1 mg/kg: read-out: Serum Cholesterol (% dec. vs. OVX); for inhibition in vivo at 10 mg/kg: 10 mg/kg oral; for inhibition in vivo at 25 mg/kg: 25 mg/kg oral; for ED50: oral, dose column in mg/kg, read-out: ED50 (effective dose to dec. serum chol. by 50%); for inhibition in vivo at 0.1 mg/kg: 0.1 mg/kg oral
From the text: as §1, §2
Cholesterol Analysis. Blood samples were allowed to clot at room temperature for 2 hours, and serum was obtained following centrifugation for 10 minutes at 3000 rpm. Serum cholesterol was determined using a Boehringer Mannheim Diagnostics high performance cholesterol assay. Briefly the cholesterol was oxidized to cholest-4-en-3-one and hydrogen peroxide. The hydrogen peroxide was then reacted with phenol and 4-aminophenazone in the presence of peroxidase to produce a p-quinone imine dye, which was read spectrophotometrically at 500 nm. Cholesterol concentration was then calculated against a standard curve. The entire assay was automated using a Biomek Automated Workstation.
as §3, §4

Row | SMILES | change in vivo at 1 mg/kg (uterus) [%] | change in vivo at 10 mg/kg (uterus) [%] | change in vivo at 25 mg/kg (uterus) [%] | Uterine EPO (V. max) ([1]; 1 mg/kg oral) | Uterine EPO (V. max) ([1]; 10 mg/kg oral) | Uterine EPO (V. max) ([1]; 25 mg/kg oral) | inhibition in vivo at 1 mg/kg (Serum cholesterol) [%] | inhibition in vivo at 10 mg/kg (Serum cholesterol) [%] | inhibition in vivo at 25 mg/kg (Serum cholesterol) [%] | ED50 (Serum cholesterol) [mg/kg] | change in vivo at 0.1 mg/kg (uterus) [%] | Uterine EPO (V. max) ([1]; 0.1 mg/kg oral) | inhibition in vivo at 0.1 mg/kg (Serum cholesterol) [%]
1 | COc1ccc(-c2ccc(C)nc2-c2ccc(OCCN(C)C)cc2)cc1 [Example 1, 2-[4-[2-(1-N,N-Dimethylamino)ethoxy]phenyl]-3-(4-methoxyphenyl)-6-methylpyridine] | 0.6 | 2.6 | 5.2 | 2.9 | 2.5 | 2.3 | 15 | 14.9 | 22.2 | > 1000 | – | – | –
2 | COc1ccc(-c2ccc(C)nc2-c2ccc(OCCN3CCCC3)cc2)cc1 [Example 2, 2-[4-[2-(1-Pyrrolidinyl)ethoxy]phenyl]-3-(4-methoxyphenyl)-6-methylpyridine] | 12.7 | -12.5 | 19.5 | 6.6 | 5.9 | 59.8 | -23.6 | -33.5 | 9.7 | > 10 | – | – | –
3 | COc1ccc(-c2ccc(C)nc2-c2ccc(OCCN3CCOCC3)cc2)cc1 [Example 3, 2-[4-[2-(4-Morpholinyl)ethoxy]phenyl]-3-(4-methoxyphenyl)-6-methylpyridine] | 4.9 | -6.1 | -2.3 | 10.8 | 6 | 3.8 | 4.5 | 1.4 | -11.6 | > 10 | – | – | –
4 | COc1ccc(-c2ccc(-c3ccc(OC)cc3)c(-c3ccc(OCCN4CCCC4)cc3)n2)cc1 [Example 5, 2-[4-[2-(1-Pyrrolidinyl)ethoxy]phenyl]-3,6-bis(4-methoxyphenyl)pyridine] | -7.6 | 27.2 | – | 4.2 | 23.1 | – | 14 | 23.5 | – | > 10 | -6.5 | 4.5 | 2.4
5 | COc1ccc(-c2ccc(C)nc2-c2ccc(OCCN3CCCCC3)cc2)cc1 [Example 7, 2-[4-[2-(1-Piperidinyl)ethoxy]phenyl]-3-(4-methoxyphenyl)-6-methylpyridine] | – | – | -5.6 | – | – | 3.6 | – | – | -1.2 | – | – | – | 23.2
6 | Cc1ccc(-c2ccc(O)cc2)c(-c2ccc(OCCN(C)C)cc2)n1 [Example 8, 2-[4-[2-(N,N-Dimethylamino)ethoxy]phenyl]-3-(4-hydroxyphenyl)-6-methylpyridine] | -1.5 | -1 | 41.6 | 5 | 6.7 | 58.6 | 15.7 | 1.5 | 46.4 | 26 | – | – | –
7 | Cc1ccc(-c2ccc(O)cc2)c(-c2ccc(OCCN3CCCCC3)cc2)n1 [Example 10, 2-[4-[2-(1-Piperidinyl)ethoxy]phenyl]-3-(4-hydroxyphenyl)-6-methylpyridine] | 3.4 | 7 | 47 | 4.4 | 3.4 | 6.8 | 8.4 | 1.7 | 17.9 | > 10 | – | – | –
8 | Cc1ccc(-c2ccc(O)cc2)c(-c2ccc(OCCN3CCOCC3)cc2)n1 [Example 11, 2-[4-[2-(4-Morpholinyl)ethoxy]phenyl]-3-(4-hydroxyphenyl)-6-methylpyridine] | -0.8 | 27 | 5 | 4.8 | 4.9 | 4.4 | 16 | 18.2 | -3.6 | > 10 | – | – | –
9 | Oc1ccc(-c2ccc(-c3ccccc3)nc2-c2ccc(OCCN3CCCC3)cc2)cc1 [Example 13, 2-[4-[2-(1-Pyrrolidinyl)ethoxy]phenyl]-3-(4-hydroxyphenyl)-6-phenylpyridine] | 54 | 38.8 | 35.5 | – | – | – | 53.8 | 36.8 | – | < 1 | 23.8 | 4.5 | 1.8
